Assay results from ChEMBL document CHEMBL4689842, “EUbOPEN Chemogenomics Library wave 1” (2021).

Assays:
Type in all cases: toxicity, cell-based
[1] = test system: U2OS; assay: Incucyte cell viability with U2OS; conditions: human, 10 µM, compound concentration 10 uM
[2] = test system: Fibroblast; assay: Incucyte cell viability with human fibroblast; conditions: 10 µM, compound concentration 10 uM
[3] = test system: HEK-293T; assay: Incucyte cell viability with HEK293T; conditions: human, 10 µM, compound concentration 10 uM
[4] = 0 h, replicate number 2, timepoint 0 hours
[5] = 12 h, replicate number 1, timepoint 12 hours
[6] = 18 h, replicate number 1, timepoint 18 hours
[7] = 24 h, replicate number 1, timepoint 24 hours
[8] = 0 h, replicate number 1, timepoint 0 hours
[9] = 24 h, replicate number 2, timepoint 24 hours
[10] = 6 h, replicate number 1, timepoint 6 hours
[11] = 6 h, replicate number 2, timepoint 6 hours
[12] = 18 h, replicate number 2, timepoint 18 hours
[13] = 12 h, replicate number 2, timepoint 12 hours
Further: filed as whole numbers so only -1 and 0 and 1 occur.

Structure (SMILES) | Growth Rate [1, 4] | Growth Rate [1, 5] | Growth Rate [1, 6] | Growth Rate [1, 7] | Growth Rate [2, 8] | Growth Rate [3, 8] | Growth Rate [1, 8] | Growth Rate [1, 10] | Growth Rate [1, 11] | Growth Rate [1, 12] | Growth Rate [2, 6] | Growth Rate [2, 7] | Growth Rate [3, 4] | Growth Rate [3, 10] | Growth Rate [3, 5] | Growth Rate [3, 6] | Growth Rate [3, 7] | Growth Rate [2, 10] | Growth Rate [2, 5] | Growth Rate [2, 12] | further results
Cc1ccc(-c2ccc3c(ccc4sc5c(c43)NC[C@@H](C)NC5=O)n2)cn1 | 0 | 1 | 1 | 1 | 0 | 1 | – | – | – | – | – | – | – | – | – | – | – | – | – | – | Growth Rate [3, 9]: 1
O=c1ccn([C@@H]2O[C@H](COP(=O)([O-])OP(=O)([O-])O)[C@@H](O)[C@H]2O)c(=O)[nH]1.[Na+].[Na+] | 0 | 1 | 0 | 1 | 0 | 1 | 1 | 0 | 1 | 1 | 1 | 1 | 0 | 0 | 1 | 1 | 1 | – | – | – | Growth Rate [2, 11]: 1; Growth Rate [2, 13]: 1; Growth Rate [3, 11]: 1
O=C(c1ccc(C(=O)N2CCC(N3CCCC3)CC2)c(Nc2ccccc2)c1)N1CCC(N2CCCC2)CC1 | – | 1 | 1 | 1 | 0 | – | – | – | 1 | – | 1 | 1 | 0 | – | – | – | 1 | 1 | 1 | – | –
Cc1nc(-c2ccc(C(F)(F)F)cc2)sc1COc1ccc([C@H](CC(=O)O)c2ccon2)cc1 | 0 | 0 | 0 | 0 | 0 | – | – | – | 0 | 1 | 1 | 0 | 0 | 0 | 0 | 0 | 0 | 0 | 1 | 0 | Growth Rate [1, 13]: 1; Growth Rate [1, 9]: 1; Growth Rate [2, 13]: 0; Growth Rate [3, 11]: 1
COc1cc(-c2cn(C)c(=O)c3cnccc23)c(OC)cc1CN(C)C | – | 1 | 0 | 1 | 0 | 1 | 0 | 0 | 1 | 1 | 0 | 0 | – | – | 1 | 0 | 0 | 0 | 0 | – | Growth Rate [2, 11]: 1; Growth Rate [3, 11]: 1; Growth Rate [3, 9]: 1
Nc1cc(F)ccc1NC(=O)/C=C/c1cnn(C/C=C/c2ccccc2)c1 | 1 | 1 | 0 | 0 | 0 | 0 | – | 0 | – | – | 1 | 1 | – | – | – | – | 1 | – | – | 0 | Growth Rate [2, 13]: 0; Growth Rate [2, 9]: 0; Growth Rate [3, 11]: 0; Growth Rate [3, 13]: 1; Growth Rate [3, 12]: 1; Growth Rate [3, 9]: 0
Cn1cc(CCn2cnc(-c3cnn(C)c3)c2-c2ccc(C#N)cc2)cn1 | 0 | 1 | 1 | 1 | – | 1 | 1 | 1 | – | 0 | 1 | 1 | – | – | – | 1 | 1 | 0 | 1 | 0 | Growth Rate [2, 4]: 0; Growth Rate [2, 11]: 1; Growth Rate [2, 9]: 0; Growth Rate [3, 11]: 1; Growth Rate [3, 13]: 1
Cc1nnc2c3ccccc3c(N[C@@H](C)[C@H](c3ccccc3)N(C)C)nn12 | – | 1 | 1 | 1 | 0 | 0 | 0 | 0 | 1 | – | 1 | 1 | 1 | 0 | 0 | 0 | 0 | 1 | 1 | 0 | Growth Rate [2, 11]: 0; Growth Rate [2, 9]: 0
Cc1c(C(=O)O)cc(-c2ccc(C3CCNCC3)cc2)c2ccc(-c3ccc(C(F)(F)F)cc3)cc12.Cl | – | 1 | 0 | 0 | 0 | – | 0 | – | – | 1 | 0 | 0 | 0 | 0 | 0 | 0 | 0 | 0 | 0 | – | Growth Rate [1, 9]: 1; Growth Rate [2, 4]: 1; Growth Rate [2, 11]: 1
C=CC(=O)Nc1ccc2[nH]c(=O)n(C3CCN(C(=O)c4ccc(-c5nc6cc[nH]c(=O)c6cc5-c5ccccc5)cc4)CC3)c2c1 | 0 | 1 | 1 | 1 | 0 | 0 | – | 1 | – | – | 1 | 1 | – | – | – | – | – | – | 1 | – | Growth Rate [3, 9]: 1
O=C(Nc1cccnn1)N1CC(C/C=C/c2cncc(Oc3ccc(C(F)(F)F)cn3)n2)C1 | 1 | 1 | 1 | 1 | 0 | 0 | 0 | 0 | – | 0 | – | 1 | 1 | 0 | – | – | 1 | – | – | 1 | Growth Rate [1, 9]: 0; Growth Rate [2, 13]: 1; Growth Rate [3, 13]: 1
Cl.O=C([C@@H](Cc1cccc(C(F)(F)F)c1)NS(=O)(=O)c1cc(F)c2c(c1)CCNC2)N1CCCC1 | – | 1 | 0 | 1 | – | 0 | 0 | 0 | 1 | 1 | – | 1 | 1 | – | – | – | – | – | 1 | 1 | Growth Rate [2, 4]: 1; Growth Rate [3, 11]: 1; Growth Rate [3, 13]: 1; Growth Rate [3, 9]: 1
COc1cc(OC)cc(-c2noc(N3CCN(C)C4(CCN(c5ccnc(C)c5)CC4)C3)n2)c1 | – | 0 | 0 | 0 | – | – | 0 | 0 | 1 | 1 | 1 | 0 | – | 0 | – | – | 1 | 0 | 1 | 0 | Growth Rate [1, 13]: 1; Growth Rate [1, 9]: 1; Growth Rate [2, 4]: 0; Growth Rate [2, 11]: 1; Growth Rate [2, 13]: 0; Growth Rate [3, 13]: 1
Cc1cnc(Nc2ccc(F)cc2Cl)nc1-c1c[nH]c(C(=O)N[C@H](CO)c2cccc(Cl)c2)c1 | 1 | 0 | 0 | 0 | – | 0 | 0 | 0 | – | – | 0 | 0 | – | 0 | 0 | 0 | 0 | 0 | 1 | 1 | Growth Rate [2, 4]: 0; Growth Rate [2, 9]: 1
NC(CCP(=O)(O)O)C(=O)O (racemic) | – | 1 | 1 | 1 | 0 | 0 | 0 | – | 0 | – | – | 1 | – | 1 | 1 | 1 | 1 | – | – | 1 | –
CN(C)[C@H]1CCN(c2cc(-c3ccccc3)nc3ccnn23)C1 [(S)-ZINC-3573] | – | 0 | 0 | 0 | 0 | 1 | – | 0 | – | 1 | 0 | 1 | 0 | 0 | 0 | 0 | 0 | 0 | 0 | – | Growth Rate [1, 9]: 1; Growth Rate [2, 4]: 1
CCC(=N\O)/C(C)=C/c1ccc(F)c(C)c1 [A-226] | 1 | 1 | 0 | 0 | 0 | – | 0 | 0 | – | 1 | 0 | 1 | 0 | 0 | 0 | 0 | 0 | 0 | 0 | 1 | Growth Rate [1, 9]: 1
